Experimental data published in PubChem BioAssay AID2060617 (Molecular Pharmacology Branch, DTP, NCI, 2025).

Test system: 485368-065-R4-J2-PDC spheroids with HUVEC/MSC, viability
Assay: Anticancer human tumor 485368-065-R4-J2-PDC patient-derived pancreatic carcinoma cell line growth inhibition [CLK]
Conditions: for IC50: curve of first compound; for viability, T/C: stronger effect = lower value
Source text: A high-throughput screen of multi-cell type tumor spheroids was designed to identify active combinations of […] and targeted small molecules. Complex spheroids include a stromal component modeled by human endothelial cells (HUVEC) and fibroblasts modeled by human mesenchymal stem cells (MSCs). The concentration ranges selected for each drug and investigational agent were based upon clinically achievable concentrations if the clinical Cmax of the agent was known.
Compounds. The drugs and investigational agents: cirtuvivint (SM08502; NSC835563), CC-671 (NSC850746), vemurafenib (NSC761431), tapotoclax (NSC804041), sotorasib (NSC818433), adagrasib (NSC831453), MRTX-1133 (NSC836407), BAY2416964 (NSC825713), copanlisib (NSC816437), inavolisib (NSC800729), abemaciclib (NSC768073), osimertinib (NSC779217), entinostat (NSC756642), eltanexor (KPT-8602, NSC794443), venetoclax (NSC766270), ceralasertib (NSC777638), bortezomib (NSC756655), olaparib (NSC753686), talazoparib (NSC767125), alisertib (NSC759677), peposertib (NSC802822), gemcitabine (NSC613327), 5-fluorouracil (NSC19893), SN-38 (NSC673596), oxaliplatin (NSC266046), paclitaxel (NSC125973), and doxorubicin (NSC123127), were obtained from the National Cancer Institute (NCI) Developmental Therapeutics Program Chemical Repository. The FDA-approved anticancer drug set is available from the Developmental Therapeutics Program at https://dtp.cancer.gov/organization/dscb/obtaining/available plates.htm. […] The stock solutions were prepared in dimethyl sulfoxide (DMSO, Sigma-Aldrich, St. Louis, MO, cat. D2650), except for the platinum complexes which were prepared in saline (Quality Biological, Gaithersburg, MD, cat. 114-055-101), at 800-fold the tested concentration and stored at -70 degrees C prior to their use. All drugs and investigational agents were tested over a range starting from a high concentration at or near the clinical Cmax and decreasing in half-log increments. If the clinical Cmax for an agent had not been determined, the highest concentration tested was 10 microM.
Cell Culture. All cells were maintained in an incubator at 37 degrees C and 5% CO2 with 95% humidity. The PDC lines were cultured according to standard operating procedures established by the NCI PDMR. Briefly, all PDCs were thawed and cultured in Matrigel-coated flasks prepared with a working solution of 1X Ham's F-12 nutrient mix, without supplementation (Invitrogen, Waltham, MA, cat. 11765054), 100 U/mL penicillin-streptomycin (Invitrogen, cat. 15140122), and 2.5% Matrigel (Corning Inc., Corning, NY, cat. 354248) for the first three passages. The 947758-054-R-J2-PDC line was cultured in 6B/Colon 1A media, which includes advanced DMEM/F-12 (Thermo Fisher Scientific, cat. 12634028), 10 mM HEPES (Thermo Fisher Scientific, cat. 15630080), 1X GlutaMAX supplement (Thermo Fisher Scientific, cat. 35050061), 0.1 mg/mL primocin (InvivoGen, cat. ant-pm-2), 10% defined fetal bovine serum, heat inactivated (HyClone Laboratories Inc., cat. SH30070.03HI), 1.25 mM N-Acetyl-L-cysteine (Sigma-Aldrich, cat. A9165), 10 mM nicotinamide (Sigma-Aldrich, cat. N0636), 1X B-27 supplement (Thermo Fisher Scientific, cat. 17504044), 1X N-2 supplement (Thermo Fisher Scientific, cat. 17502048), and 10 microM Y-27632 dihydrochloride (Tocris Bioscience, cat. 1254). The 876862-298-R-J1-PDC was cultured in 6E media, which includes all 6B/Colon 1A media components plus 50% L-WRN conditioned media (ATCC, cat. CRL-3276), 50 ng/mL recombinant human EGF recombinant protein (hEGF; Thermo Fisher Scientific, cat. PHG0311), 10 ng/mL recombinant human fibroblast growth factor 10 (hGFG-10; PeproTech, cat. 100-26), 1 ng/mL recombinant human fibroblast growth factor 2 (hFGF-2; PeproTech, cat. 100-18B), and 1 µM prostaglandin E2 (PGE2; Tocris, cat. 2296). The 227483-062-R1-J1-PDC line was cultured in Panc media, containing all 6E components except hFGF-2, with the addition of 500 nM SB-431542 (Selleckchem, cat. S1067) and 10 nM gastrin (Tocris, cat. 3006). […]

[1] = second compound 0.0316 µM, first compound 0.0316 µM
[2] = second compound 0.0316 µM, first compound 0.1 µM
[3] = second compound 0.0316 µM, first compound 0.316 µM
[4] = second compound 0.0316 µM, first compound 1 µM
[5] = second compound 0.0316 µM, first compound 3.16 µM
[6] = second compound 0.0316 µM, first compound 10 µM
[7] = second compound 0.1 µM, first compound 0.0316 µM
[8] = second compound 0.1 µM, first compound 0.1 µM
[9] = second compound 0.1 µM, first compound 0.316 µM
[10] = second compound 0.1 µM, first compound 1 µM
[11] = second compound 0.1 µM, first compound 3.16 µM
[12] = second compound 0.1 µM, first compound 10 µM
[13] = second compound 0.316 µM, first compound 0.0316 µM
[14] = second compound 0.316 µM, first compound 0.1 µM
[15] = second compound 0.316 µM, first compound 0.316 µM
[16] = second compound 0.316 µM, first compound 1 µM
[17] = second compound 0.316 µM, first compound 3.16 µM
[18] = second compound 0.316 µM, first compound 10 µM
[19] = second compound 1 µM, first compound 0.0316 µM
[20] = second compound 1 µM, first compound 0.1 µM
[21] = second compound 1 µM, first compound 0.316 µM
[22] = second compound 1 µM, first compound 1 µM
[23] = second compound 1 µM, first compound 3.16 µM
[24] = second compound 1 µM, first compound 10 µM
[25] = second compound 3.16 µM, first compound 0.0316 µM
[26] = second compound 3.16 µM, first compound 0.1 µM
[27] = second compound 3.16 µM, first compound 0.316 µM
[28] = second compound 3.16 µM, first compound 1 µM
[29] = second compound 3.16 µM, first compound 3.16 µM
[30] = second compound 3.16 µM, first compound 10 µM
[31] = second compound 10 µM, first compound 0.0316 µM
[32] = second compound 10 µM, first compound 0.1 µM
[33] = second compound 10 µM, first compound 0.316 µM
[34] = second compound 10 µM, first compound 1 µM
[35] = second compound 10 µM, first compound 3.16 µM
[36] = second compound 10 µM, first compound 10 µM
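Note: spheroids exposed to compounds for seven days.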
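Throughout, for viability, T/C: 100% = DMSO vehicle control wells.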

CCCS(=O)(=O)Nc1ccc(F)c(C(=O)c2c[nH]c3ncc(-c4ccc(Cl)cc4)cc23)c1F + CN1CCN(c2cc(C(=O)Nc3cc4cc(-c5cnn(C)c5)ccc4cn3)ccn2)CC1
IC50 (second compound 0.0316 µM): > 10 µM | IC50 (second compound 0.1 µM): > 10 µM | IC50 (second compound 0.316 µM): > 10 µM | IC50 (second compound 1 µM): < 0.0316 µM | IC50 (second compound 3.16 µM): < 0.0316 µM | IC50 (second compound 10 µM): < 0.0316 µM | viability, T/C [1]: 112% | viability, T/C [2]: 98.8% | viability, T/C [3]: 98.3% | viability, T/C [4]: 111% | viability, T/C [5]: 93.8% | viability, T/C [6]: 111% | viability, T/C [7]: 105% | viability, T/C [8]: 112% | viability, T/C [9]: 103% | viability, T/C [10]: 103% | viability, T/C [11]: 96.5% | viability, T/C [12]: 94.5% | viability, T/C [13]: 84.1% | viability, T/C [14]: 99.5% | viability, T/C [15]: 102% | viability, T/C [16]: 96.2% | viability, T/C [17]: 97.9% | viability, T/C [18]: 64.2% | viability, T/C [19]: 0.91% | viability, T/C [20]: 2.34% | viability, T/C [21]: 4.24% | viability, T/C [22]: 1.9% | viability, T/C [23]: 5.13% | viability, T/C [24]: 3.9% | viability, T/C [25]: 2.27% | viability, T/C [26]: 3.77% | viability, T/C [27]: 2.71% | viability, T/C [28]: 3.9% | viability, T/C [29]: 3.24% | viability, T/C [30]: 5.64% | viability, T/C [31]: 1.34% | viability, T/C [32]: 4.22% | viability, T/C [33]: 2.17% | viability, T/C [34]: 3.01% | viability, T/C [35]: 4.86% | viability, T/C [36]: 6.03%

COC1C=CCC(C)C(C)S(=O)(=O)NC(=O)c2ccc3c(c2)N(CC2CCC21)CC1(CCCc2cc(Cl)ccc21)CO3 (centres undefined) + CN1CCN(c2cc(C(=O)Nc3cc4cc(-c5cnn(C)c5)ccc4cn3)ccn2)CC1
IC50 (second compound 0.0316 µM): > 10 µM | IC50 (second compound 0.1 µM): > 10 µM | IC50 (second compound 0.316 µM): > 10 µM | IC50 (second compound 1 µM): < 0.0316 µM | IC50 (second compound 3.16 µM): < 0.0316 µM | IC50 (second compound 10 µM): < 0.0316 µM | viability, T/C [1]: 105% | viability, T/C [2]: 106% | viability, T/C [3]: 106% | viability, T/C [4]: 113% | viability, T/C [5]: 104% | viability, T/C [6]: 91.6% | viability, T/C [7]: 117% | viability, T/C [8]: 124% | viability, T/C [9]: 107% | viability, T/C [10]: 114% | viability, T/C [11]: 108% | viability, T/C [12]: 90.8% | viability, T/C [13]: 84% | viability, T/C [14]: 86% | viability, T/C [15]: 87.2% | viability, T/C [16]: 78.6% | viability, T/C [17]: 81.8% | viability, T/C [18]: 63.5% | viability, T/C [19]: 1.08% | viability, T/C [20]: 2.18% | viability, T/C [21]: 2.96% | viability, T/C [22]: 2.24% | viability, T/C [23]: 1.88% | viability, T/C [24]: 6.49% | viability, T/C [25]: 1.15% | viability, T/C [26]: 3.34% | viability, T/C [27]: 1.27% | viability, T/C [28]: 2.24% | viability, T/C [29]: 2.02% | viability, T/C [30]: 4.8% | viability, T/C [31]: 2.15% | viability, T/C [32]: 4.22% | viability, T/C [33]: 1.64% | viability, T/C [34]: 3.68% | viability, T/C [35]: 2.18% | viability, T/C [36]: 2.71%
